# Source: patent publication US9512087B2, “Hybrid molecules containing pharmacophores of fluconazole as antifungal agents and their preparation” (Council for Scientific & Industrial Research, priority 2011, dated 2016)
# Tests used:
# Assay in all cases: Antifungal MIC, broth dilution
# C. neoformans ATCC 34664 = type: cell-based; conditions: end point 48 hours; for MIC50: Cryptococcus neoformans, ATCC34664, RPMI 1640 with MOPS, read-out: Cn01 MIC50
# C. albicans ATCC 24433 = type: cell-based, Candida albicans; conditions: end point 48 hours; for MIC80 / MIC50: Candida albicans, ATCC24433, RPMI 1640 with MOPS; for MIC80: read-out: Ca01 A: MIC80; for MIC50: read-out: Ca01 B: MIC50
# Procedure: (§1) The compounds of Formula 1 were tested for antifungal activity against Candida albicans, Aspergillus niger and Fusarium proliferatum. In vitro evaluation of antifungal activity was performed by determining the minimum inhibitory concentration (MIC) following standard methods (CLSI: Reference method for broth dilution antifungal susceptibility testing of yeasts; Approved standard, second edition M27-A2, 2002; CLSI: Reference method for broth dilution antifungal susceptibility testing of filamentous fungi; Approved standard M38-A, 2002). Anti-fungal susceptibility testing of these anti-fungal compounds was done by broth dilution method using RPMI 1640 medium with MOPS buffer. Known anti-fungal agents like fluconazole and amphotericin-B were used as positive control. End points were determined after 48 hours visually and by using spectrophotometer wherever necessary. Different dilutions were tried and various sets of experiments performed. The activity parameters are enumerated in Table 5.
# A. niger ATCC 16404 = type: cell-based, Aspergillus niger; conditions: end point 48 hours; for MIC50: Aspergillus niger, ATCC16404, RPMI 1640 with MOPS, read-out: An01 MIC50
# Procedure: as §1
# [1] = system: F. proliferatum ATCC 10052; type: cell-based, Fusarium proliferatum; conditions: end point 48 hours; for MIC50: Fusarium proliferatum, ATCC10052, RPMI 1640 with MOPS, read-out: Fp01 MIC50
# Procedure: as §1
# C. krusei ATCC 6258 = type: cell-based; conditions: end point 48 hours; for MIC50: Pichia kudriavzevii, ATCC6258, RPMI 1640 with MOPS, read-out: Ck01 MIC50
# C. glabrata ATCC 90030 = type: cell-based; conditions: end point 48 hours; for MIC50: Nakaseomyces glabratus, ATCC90030, RPMI 1640 with MOPS, read-out: Cg01 MIC50
# A. fumigatus ATCC 46645 = type: cell-based; conditions: end point 48 hours; for MIC50: Aspergillus fumigatus, ATCC46645, RPMI 1640 with MOPS, read-out: Afm01 MIC50
# C. tropicalis ATCC 750 = type: cell-based; conditions: end point 48 hours; for MIC50: Candida tropicalis, ATCC750, RPMI 1640 with MOPS, read-out: Ct01 MIC50
Compound,MIC50 (C. neoformans ATCC 34664),MIC80 (C. albicans ATCC 24433),MIC50 (C. albicans ATCC 24433),MIC50 (A. niger ATCC 16404),MIC50 [1],MIC50 (C. krusei ATCC 6258),MIC50 (C. glabrata ATCC 90030),MIC50 (A. fumigatus ATCC 46645),MIC50 (C. tropicalis ATCC 750),Cn01 MIC50 (C. neoformans ATCC 34664; RPMI 1640 with MOPS),Ca01 A: MIC80 (C. albicans ATCC 24433; RPMI 1640 with MOPS),Ca01 B: MIC50 (C. albicans ATCC 24433; RPMI 1640 with MOPS),An01 MIC50 (A. niger ATCC 16404; RPMI 1640 with MOPS),Fp01 MIC50 ([1]; RPMI 1640 with MOPS),Ck01 MIC50 (C. krusei ATCC 6258; RPMI 1640 with MOPS),Cg01 MIC50 (C. glabrata ATCC 90030; RPMI 1640 with MOPS),Afm01 MIC50 (A. fumigatus ATCC 46645; RPMI 1640 with MOPS),Ct01 MIC50 (C. tropicalis ATCC 750; RPMI 1640 with MOPS)
COc1ccc(/C=C/C(=O)c2ccc(OCC(O)(Cn3cncn3)c3ccc(F)cc3)cc2)cc1 (stereo not drawn) [Compound 1A-10],0.5 µg/mL,2 µg/mL,0.25 µg/mL,> 4 µg/mL,> 4 µg/mL,4 µg/mL,0.5 µg/mL,> 4 µg/mL,4 µg/mL,–,–,–,–,–,–,–,–,–
COc1ccc(/C=C/C(=O)c2ccc(OCC(O)(Cn3cncn3)c3ccc(F)cc3F)cc2)cc1 (stereo not drawn) [Compound 1A-2],1 µg/mL,0.12 µg/mL,0.06 µg/mL,4 µg/mL,> 4 µg/mL,4 µg/mL,0.25 µg/mL,> 4 µg/mL,0.25 µg/mL,–,–,–,–,–,–,–,–,–
"O=C(c1ccc(OCC(O)(Cn2cncn2)c2ccc(F)cc2F)cc1)C1OC1c1ccc(Cl)cc1Cl (stereo not drawn) [Compound 1B-2, (3-(2,4-dichlorophenyl)oxiran-2-yl) (4-(2-(2,4-difluorophenyl)-2-hydroxy-3-(1H-1,2,4-triazol-1-yl)propoxy)phenyl)methanone]",1 µg/mL,0.5 µg/mL,0.5 µg/mL,> 4 µg/mL,> 4 µg/mL,4 µg/mL,0.5 µg/mL,> 4 µg/mL,1 µg/mL,–,–,–,–,–,–,–,–,–
"O=C(/C=C/c1ccc(Cl)cc1)c1ccc(OC[C@@](O)(Cn2cncn2)c2ccc(F)cc2F)cc1 [S-(+)-1A-6, S-(+)-(E)-3-(4-chlorophenyl)-1-(4-(2-(2,4-difluorophenyl)-2-hydroxy-3-(1H-1,2,4-triazol-1-yl)propoxy)phenyl)prop-2-en-1-one]",2 µg/mL,2 µg/mL,1 µg/mL,> 4 µg/mL,> 4 µg/mL,4 µg/mL,0.5 µg/mL,> 4 µg/mL,2 µg/mL,–,–,–,–,–,–,–,–,–
O=C(/C=C/c1ccc(Cl)cc1)c1ccc(OCC(O)(Cn2cncn2)c2ccc(F)cc2)cc1 (stereo not drawn) [Compound 1A-12],0.5 µg/mL,2 µg/mL,0.5 µg/mL,> 4 µg/mL,> 4 µg/mL,4 µg/mL,0.5 µg/mL,> 4 µg/mL,4 µg/mL,–,–,–,–,–,–,–,–,–
O=C(/C=C/c1ccc(OCC(O)(Cn2cncn2)c2ccc(F)cc2F)cc1)C1CC1 (stereo not drawn) [Compound 1A-28],–,–,–,–,–,–,–,–,–,2 µg/mL,0.06 µg/mL,0.015 µg/mL,8 µg/mL,>16 µg/mL,1 µg/mL,0.03 µg/mL,16 µg/mL,0.25 µg/mL

# Further lines, results first:
MIC50 (C. neoformans ATCC 34664),MIC80 (C. albicans ATCC 24433),MIC50 (C. albicans ATCC 24433),MIC50 (A. niger ATCC 16404),MIC50 [1],MIC50 (C. krusei ATCC 6258),MIC50 (C. glabrata ATCC 90030),MIC50 (A. fumigatus ATCC 46645),MIC50 (C. tropicalis ATCC 750),Cn01 MIC50 (C. neoformans ATCC 34664; RPMI 1640 with MOPS),Ca01 A: MIC80 (C. albicans ATCC 24433; RPMI 1640 with MOPS),Ca01 B: MIC50 (C. albicans ATCC 24433; RPMI 1640 with MOPS),An01 MIC50 (A. niger ATCC 16404; RPMI 1640 with MOPS),Fp01 MIC50 ([1]; RPMI 1640 with MOPS),Ck01 MIC50 (C. krusei ATCC 6258; RPMI 1640 with MOPS),Cg01 MIC50 (C. glabrata ATCC 90030; RPMI 1640 with MOPS),Afm01 MIC50 (A. fumigatus ATCC 46645; RPMI 1640 with MOPS),Ct01 MIC50 (C. tropicalis ATCC 750; RPMI 1640 with MOPS),Compound
1 µg/mL,0.25 µg/mL,0.12 µg/mL,> 4 µg/mL,> 4 µg/mL,4 µg/mL,0.25 µg/mL,8 µg/mL,1 µg/mL,–,–,–,–,–,–,–,–,–,COc1ccc(C(=O)/C=C/c2ccc(OCC(O)(Cn3cncn3)c3ccc(F)cc3F)cc2)cc1 (stereo not drawn) [Compound 1A-20]
1 µg/mL,0.5 µg/mL,0.5 µg/mL,> 4 µg/mL,> 4 µg/mL,2 µg/mL,1 µg/mL,> 4 µg/mL,0.5 µg/mL,–,–,–,–,–,–,–,–,–,COc1ccc(C(=O)/C=C/c2ccc(OCC(O)(Cn3cncn3)c3ccc(F)cc3F)c(OC)c2)cc1 (stereo not drawn) [Compound 1A-23]
1 µg/mL,0.25 µg/mL,0.12 µg/mL,> 8 µg/mL,> 8 µg/mL,8 µg/mL,0.25 µg/mL,> 8 µg/mL,0.5 µg/mL,–,–,–,–,–,–,–,–,–,O=C(/C=C/c1cccs1)c1ccc(OCC(O)(Cn2cncn2)c2ccc(F)cc2F)cc1 (stereo not drawn) [Compound 1A-13]
0.5 µg/mL,0.25 µg/mL,0.12 µg/mL,> 4 µg/mL,> 4 µg/mL,1 µg/mL,0.06 µg/mL,> 4 µg/mL,2 µg/mL,–,–,–,–,–,–,–,–,–,CCCCCC(=O)/C=C/c1ccc(OCC(O)(Cn2cncn2)c2ccc(F)cc2F)cc1 (stereo not drawn) [Compound 1A-26]
8 µg/mL,0.5 µg/mL,0.25 µg/mL,> 8 µg/mL,> 8 µg/mL,> 8 µg/mL,0.5 µg/mL,> 8 µg/mL,2 µg/mL,–,–,–,–,–,–,–,–,–,COc1ccccc1/C=C/C(=O)c1ccc(OCC(O)(Cn2cncn2)c2ccc(F)cc2F)cc1 (stereo not drawn) [Compound 1A-3]
